Results from ChEMBL document CHEMBL5465560, “Selectivity Literature for EUbOPEN Chemogenomic Library” (2024).

Experiments:
[1] = target: Calcium/calmodulin-dependent protein kinase type II subunit gamma (Homo sapiens) (UniProt Q13555); assay: Selectivity interaction (Kinase panel (KiNativ target engagement assay in Jurkat cells)) EUB0001635a CAMK2G; type: cell-based; details: Selectivity number of off-targets 0.0, Selectivity number of targets 233.0, Source Knowledge https://www.sciencedirect.com/science/article/pii/S2451945619300674?via%3Dihub, at 1 µM
Chain of Calcium/calmodulin-dependent protein kinase type II subunit gamma (Homo sapiens) (Q13555 whole entry): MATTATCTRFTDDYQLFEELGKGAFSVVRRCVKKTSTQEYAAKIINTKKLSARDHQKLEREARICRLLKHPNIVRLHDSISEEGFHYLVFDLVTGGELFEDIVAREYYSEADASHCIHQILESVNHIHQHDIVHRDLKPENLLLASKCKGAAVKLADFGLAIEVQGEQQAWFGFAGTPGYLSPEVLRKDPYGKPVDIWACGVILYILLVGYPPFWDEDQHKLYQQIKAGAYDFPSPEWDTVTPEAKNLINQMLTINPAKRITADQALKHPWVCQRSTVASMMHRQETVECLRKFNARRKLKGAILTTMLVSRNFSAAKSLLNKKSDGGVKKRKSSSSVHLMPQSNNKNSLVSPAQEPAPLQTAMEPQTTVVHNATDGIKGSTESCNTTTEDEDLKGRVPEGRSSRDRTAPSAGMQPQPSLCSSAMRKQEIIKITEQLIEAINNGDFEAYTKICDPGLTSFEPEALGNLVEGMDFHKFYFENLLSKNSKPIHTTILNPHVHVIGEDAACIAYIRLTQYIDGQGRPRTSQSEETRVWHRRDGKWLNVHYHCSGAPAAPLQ

[2] = target: Ribosomal protein S6 kinase alpha-5 (Homo sapiens) (UniProt O75582); assay: Selectivity interaction (KinomeScan (DiscoverX)) EUB0000229b RPS6KA5; details: at 10 µM
[3] = target: Calcium/calmodulin-dependent protein kinase kinase 2 (Homo sapiens) (UniProt Q96RR4); assay: Selectivity interaction (Kinase panel (DSF assay)) EUB0001559a CAMKK2
[4] = target: Mitogen-activated protein kinase kinase kinase kinase 5 (Homo sapiens) (UniProt Q9Y4K4); assay: Selectivity interaction (KinomeScan (DiscoverX)) EUB0000045b MAP4K5
Chain of Mitogen-activated protein kinase kinase kinase kinase 5 (Homo sapiens) (Q9Y4K4 whole entry, looked up): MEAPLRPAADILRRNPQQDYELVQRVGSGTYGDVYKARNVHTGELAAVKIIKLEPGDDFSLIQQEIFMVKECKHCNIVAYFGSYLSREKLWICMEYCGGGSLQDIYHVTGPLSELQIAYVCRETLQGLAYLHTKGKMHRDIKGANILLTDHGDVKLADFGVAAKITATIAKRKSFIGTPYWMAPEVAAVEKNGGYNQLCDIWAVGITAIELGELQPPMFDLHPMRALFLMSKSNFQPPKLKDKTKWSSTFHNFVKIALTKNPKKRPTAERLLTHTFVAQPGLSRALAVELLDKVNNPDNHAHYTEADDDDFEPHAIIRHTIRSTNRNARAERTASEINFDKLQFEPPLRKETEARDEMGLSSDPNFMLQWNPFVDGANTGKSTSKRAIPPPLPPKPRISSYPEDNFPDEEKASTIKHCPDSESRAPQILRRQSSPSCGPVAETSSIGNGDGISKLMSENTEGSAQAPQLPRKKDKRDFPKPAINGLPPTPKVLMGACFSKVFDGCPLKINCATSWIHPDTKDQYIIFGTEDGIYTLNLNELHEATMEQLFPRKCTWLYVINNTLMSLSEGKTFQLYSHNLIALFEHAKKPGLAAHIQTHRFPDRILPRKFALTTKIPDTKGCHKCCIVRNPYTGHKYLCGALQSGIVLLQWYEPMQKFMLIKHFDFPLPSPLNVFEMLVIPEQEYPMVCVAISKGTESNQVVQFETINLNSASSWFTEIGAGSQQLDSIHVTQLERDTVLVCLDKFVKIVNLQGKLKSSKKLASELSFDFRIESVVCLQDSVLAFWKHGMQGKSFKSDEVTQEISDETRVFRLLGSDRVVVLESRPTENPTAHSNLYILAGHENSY

[5] = tested on: Receptor-type tyrosine-protein kinase FLT3 (Homo sapiens), P36888 [UNDEFINED MUTATION]; assay: Selectivity interaction (KinomeScan (DiscoverX)) EUB0000695a FLT3; details: at 100 nM
Chain of Receptor-type tyrosine-protein kinase FLT3 (Homo sapiens), P36888 [UNDEFINED MUTATION] (P36888 whole entry, looked up, change not shown): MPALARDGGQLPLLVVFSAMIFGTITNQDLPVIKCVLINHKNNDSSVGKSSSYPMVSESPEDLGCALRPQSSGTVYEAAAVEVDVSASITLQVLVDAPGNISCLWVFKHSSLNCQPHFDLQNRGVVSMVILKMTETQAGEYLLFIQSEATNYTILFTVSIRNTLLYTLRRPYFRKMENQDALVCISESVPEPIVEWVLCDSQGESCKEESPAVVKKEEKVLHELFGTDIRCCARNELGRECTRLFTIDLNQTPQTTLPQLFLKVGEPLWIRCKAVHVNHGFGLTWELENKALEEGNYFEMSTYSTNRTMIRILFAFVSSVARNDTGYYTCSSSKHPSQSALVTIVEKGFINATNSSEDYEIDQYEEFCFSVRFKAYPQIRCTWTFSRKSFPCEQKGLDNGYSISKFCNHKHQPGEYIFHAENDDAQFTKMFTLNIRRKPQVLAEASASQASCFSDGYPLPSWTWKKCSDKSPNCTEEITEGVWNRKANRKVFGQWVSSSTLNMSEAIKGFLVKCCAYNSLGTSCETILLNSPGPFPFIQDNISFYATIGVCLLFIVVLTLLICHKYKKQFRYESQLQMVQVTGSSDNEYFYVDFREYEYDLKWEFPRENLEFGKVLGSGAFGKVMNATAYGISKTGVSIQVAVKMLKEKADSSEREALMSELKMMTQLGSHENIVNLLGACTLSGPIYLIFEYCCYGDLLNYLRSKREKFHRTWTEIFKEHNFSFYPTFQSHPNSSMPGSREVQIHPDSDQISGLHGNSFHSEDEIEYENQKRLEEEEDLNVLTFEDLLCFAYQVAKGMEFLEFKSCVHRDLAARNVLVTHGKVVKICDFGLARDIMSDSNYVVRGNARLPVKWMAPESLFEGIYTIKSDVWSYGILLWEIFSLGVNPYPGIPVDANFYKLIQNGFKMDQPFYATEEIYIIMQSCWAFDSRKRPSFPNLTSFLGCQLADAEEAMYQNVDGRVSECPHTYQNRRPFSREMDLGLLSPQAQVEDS

[6] = target: Cyclin-dependent kinase 14 (Homo sapiens) (UniProt O94921); assay: Selectivity interaction (KinomeScan (DiscoverX)) EUB0001079a CDK14; details: at 1 µM
Chain of Cyclin-dependent kinase 14 (Homo sapiens) (O94921 whole entry): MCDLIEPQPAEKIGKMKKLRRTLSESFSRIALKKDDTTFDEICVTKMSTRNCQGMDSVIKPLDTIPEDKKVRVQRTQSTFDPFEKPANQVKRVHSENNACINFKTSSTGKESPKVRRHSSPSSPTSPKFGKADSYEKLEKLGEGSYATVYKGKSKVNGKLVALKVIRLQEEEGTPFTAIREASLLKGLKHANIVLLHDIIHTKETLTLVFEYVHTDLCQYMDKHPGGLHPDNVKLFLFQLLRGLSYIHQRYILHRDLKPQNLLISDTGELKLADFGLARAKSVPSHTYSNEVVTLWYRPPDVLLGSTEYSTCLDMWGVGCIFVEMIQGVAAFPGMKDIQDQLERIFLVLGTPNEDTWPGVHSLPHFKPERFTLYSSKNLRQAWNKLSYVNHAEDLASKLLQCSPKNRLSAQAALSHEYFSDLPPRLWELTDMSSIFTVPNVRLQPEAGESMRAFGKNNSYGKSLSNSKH

[7] = tested on: Epidermal growth factor receptor (Homo sapiens), P00533 [UNDEFINED MUTATION]; assay: Selectivity interaction (LanthaScreen Eu Kinase Binding Assay) EUB0001632a EGFR; details: at 10 µM
[8] = target: G protein-coupled receptor kinase 5 (Homo sapiens, UniProt P34947); assay: Selectivity interaction (Kinase panel (Z-LYTE Assay)) EUB0001632a GRK5; details: at 10 µM
Chain of G protein-coupled receptor kinase 5 (P34947 whole entry, looked up): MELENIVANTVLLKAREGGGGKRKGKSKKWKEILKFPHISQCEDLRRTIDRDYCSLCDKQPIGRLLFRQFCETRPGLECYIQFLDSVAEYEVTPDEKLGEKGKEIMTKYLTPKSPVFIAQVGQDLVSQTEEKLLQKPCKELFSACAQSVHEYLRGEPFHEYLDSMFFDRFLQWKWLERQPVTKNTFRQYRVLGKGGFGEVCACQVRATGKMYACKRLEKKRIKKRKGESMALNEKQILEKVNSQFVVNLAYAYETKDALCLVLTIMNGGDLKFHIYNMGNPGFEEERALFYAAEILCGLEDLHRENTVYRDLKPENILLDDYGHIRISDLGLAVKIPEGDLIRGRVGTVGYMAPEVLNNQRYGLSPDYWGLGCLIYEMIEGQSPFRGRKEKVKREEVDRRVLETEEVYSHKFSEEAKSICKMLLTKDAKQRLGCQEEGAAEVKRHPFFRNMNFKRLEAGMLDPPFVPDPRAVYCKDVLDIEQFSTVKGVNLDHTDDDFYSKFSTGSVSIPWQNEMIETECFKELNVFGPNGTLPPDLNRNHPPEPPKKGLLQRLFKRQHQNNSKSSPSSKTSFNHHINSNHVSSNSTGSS

[9] = target: Protein polybromo-1 (Homo sapiens) (UniProt Q86U86); assay: Selectivity interaction (Bromodomain panel (DSF asssay)) EUB0000270b PBRM1
[10] = target: Casein kinase I isoform alpha (Homo sapiens, UniProt P48729); details: at 10 µM
[11] = target: Vascular endothelial growth factor receptor 1 (Homo sapiens) (UniProt P17948); assay: Selectivity interaction (Upstate Kinase Profiler service (Millipore)) EUB0000056c FLT1; details: at 1 µM
Chain of Vascular endothelial growth factor receptor 1 (Homo sapiens) (P17948 whole entry): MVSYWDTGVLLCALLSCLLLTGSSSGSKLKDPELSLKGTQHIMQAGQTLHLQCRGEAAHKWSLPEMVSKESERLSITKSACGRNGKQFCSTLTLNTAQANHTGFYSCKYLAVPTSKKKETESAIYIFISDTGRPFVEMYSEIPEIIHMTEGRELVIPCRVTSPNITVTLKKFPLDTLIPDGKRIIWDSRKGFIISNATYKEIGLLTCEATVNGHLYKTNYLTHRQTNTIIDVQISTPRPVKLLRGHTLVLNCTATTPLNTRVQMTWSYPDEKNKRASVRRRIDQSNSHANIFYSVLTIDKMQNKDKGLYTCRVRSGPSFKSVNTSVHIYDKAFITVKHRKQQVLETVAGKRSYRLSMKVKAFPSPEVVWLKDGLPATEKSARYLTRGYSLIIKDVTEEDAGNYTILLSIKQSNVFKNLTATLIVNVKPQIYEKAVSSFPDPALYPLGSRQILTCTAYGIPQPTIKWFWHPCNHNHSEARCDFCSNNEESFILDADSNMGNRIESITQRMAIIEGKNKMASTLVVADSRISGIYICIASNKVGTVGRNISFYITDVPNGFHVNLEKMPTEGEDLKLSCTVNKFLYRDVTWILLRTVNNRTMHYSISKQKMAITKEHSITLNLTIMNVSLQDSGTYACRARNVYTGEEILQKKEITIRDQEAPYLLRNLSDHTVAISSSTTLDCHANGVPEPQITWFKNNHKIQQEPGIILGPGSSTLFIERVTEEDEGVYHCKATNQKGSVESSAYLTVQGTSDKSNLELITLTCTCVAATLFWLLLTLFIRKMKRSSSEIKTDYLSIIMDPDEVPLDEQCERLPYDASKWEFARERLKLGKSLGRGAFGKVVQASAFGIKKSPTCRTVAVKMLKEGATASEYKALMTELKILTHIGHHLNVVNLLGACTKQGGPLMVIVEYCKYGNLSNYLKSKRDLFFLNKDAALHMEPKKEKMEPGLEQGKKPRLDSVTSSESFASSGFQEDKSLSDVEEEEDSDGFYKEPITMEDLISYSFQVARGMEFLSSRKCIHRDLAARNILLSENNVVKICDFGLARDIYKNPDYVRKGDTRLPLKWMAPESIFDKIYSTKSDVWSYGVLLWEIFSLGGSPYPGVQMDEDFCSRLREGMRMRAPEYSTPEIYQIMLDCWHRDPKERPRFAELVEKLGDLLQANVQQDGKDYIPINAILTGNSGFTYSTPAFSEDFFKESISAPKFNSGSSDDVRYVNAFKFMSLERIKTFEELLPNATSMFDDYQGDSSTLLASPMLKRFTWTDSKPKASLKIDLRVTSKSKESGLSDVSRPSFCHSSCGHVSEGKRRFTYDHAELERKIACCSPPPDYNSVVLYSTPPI

[12] = target: T1, Serine/threonine-protein kinase Nek1 (Homo sapiens) (UniProt Q96PY6); assay: Selectivity interaction (Kinase panel (DSF assay)) EUB0001558a NEK1
T1 sequence (whole entry): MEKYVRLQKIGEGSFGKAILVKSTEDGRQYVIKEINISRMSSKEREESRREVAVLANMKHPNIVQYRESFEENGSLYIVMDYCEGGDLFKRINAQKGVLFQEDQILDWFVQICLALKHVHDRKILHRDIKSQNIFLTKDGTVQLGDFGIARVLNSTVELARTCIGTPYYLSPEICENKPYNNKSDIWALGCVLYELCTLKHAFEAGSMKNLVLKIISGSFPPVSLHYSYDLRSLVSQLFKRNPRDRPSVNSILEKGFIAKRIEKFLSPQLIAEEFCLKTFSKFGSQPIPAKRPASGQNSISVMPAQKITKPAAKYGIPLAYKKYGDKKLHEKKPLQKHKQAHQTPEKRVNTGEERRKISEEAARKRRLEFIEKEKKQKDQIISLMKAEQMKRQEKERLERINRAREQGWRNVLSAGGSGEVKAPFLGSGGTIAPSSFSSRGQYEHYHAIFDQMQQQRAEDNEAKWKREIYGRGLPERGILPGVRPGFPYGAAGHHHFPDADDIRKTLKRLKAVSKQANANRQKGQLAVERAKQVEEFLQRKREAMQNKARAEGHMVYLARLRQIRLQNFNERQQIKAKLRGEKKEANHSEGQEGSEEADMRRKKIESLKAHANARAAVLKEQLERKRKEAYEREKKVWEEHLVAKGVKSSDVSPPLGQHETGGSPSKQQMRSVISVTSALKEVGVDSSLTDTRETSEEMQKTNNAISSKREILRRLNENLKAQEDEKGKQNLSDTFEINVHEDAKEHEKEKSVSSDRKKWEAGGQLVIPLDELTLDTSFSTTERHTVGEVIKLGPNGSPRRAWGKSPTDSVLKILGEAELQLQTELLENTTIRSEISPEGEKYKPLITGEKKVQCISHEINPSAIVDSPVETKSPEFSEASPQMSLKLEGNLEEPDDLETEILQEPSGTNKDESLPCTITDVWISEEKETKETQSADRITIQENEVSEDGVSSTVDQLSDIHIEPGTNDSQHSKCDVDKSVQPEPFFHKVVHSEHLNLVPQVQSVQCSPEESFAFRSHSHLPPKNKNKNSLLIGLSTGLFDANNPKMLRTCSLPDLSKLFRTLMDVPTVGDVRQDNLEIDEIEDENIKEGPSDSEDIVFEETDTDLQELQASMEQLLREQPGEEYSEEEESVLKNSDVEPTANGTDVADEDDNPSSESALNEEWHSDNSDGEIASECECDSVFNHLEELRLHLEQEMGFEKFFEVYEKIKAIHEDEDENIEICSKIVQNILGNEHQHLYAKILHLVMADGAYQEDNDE

[13] = target: T2, EKC/KEOPS complex subunit TP53RK (Homo sapiens) (UniProt Q96S44); assay: Selectivity interaction (ActivX KiNativ screen (kinase selectivity in THP-1 cell lysates)) EUB0000639a TP53RK; type: subcellular; details: lysate
T2 sequence (whole entry): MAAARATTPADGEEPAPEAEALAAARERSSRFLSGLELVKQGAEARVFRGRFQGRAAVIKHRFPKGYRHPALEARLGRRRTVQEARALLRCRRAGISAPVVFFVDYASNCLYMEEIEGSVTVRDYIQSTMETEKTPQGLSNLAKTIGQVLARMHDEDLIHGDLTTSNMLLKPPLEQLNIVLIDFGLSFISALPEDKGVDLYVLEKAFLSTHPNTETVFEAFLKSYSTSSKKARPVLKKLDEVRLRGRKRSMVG

[14] = target: T1, Serine/threonine-protein kinase Nek1 (Homo sapiens); assay: Selectivity interaction (KinomeScan (DiscoverX)) EUB0000655a NEK1; details: at 10 µM
[15] = target: Serine/threonine-protein kinase PAK 4 (Homo sapiens, UniProt O96013); assay: Selectivity interaction (KinomeScan (DiscoverX)) EUB0000655a PAK4; details: at 10 µM

C=CC(=O)Nc1ccc(C(=O)Nc2[nH]nc3c2CN(C(=O)N[C@H](CN(C)C)c2ccccc2)C3(C)C)cc1
% of engagement [1]: 35.8%

COc1cc(N(C)c2ccnc3ccc(C(F)(F)F)cc23)cc(OC)c1OC
% binding [2]: 85%

CN(C(=O)c1cnn2cccnc12)c1cc2c(cc1N1CCOCC1)C(=O)N(C[C@@H](F)C(C)(C)O)C2
dTM [3]: 1.1 K

C=CC(=O)Nc1cc(-n2c(=O)ccc3cnc4ccc(-c5ccc(NS(C)(=O)=O)cc5)cc4c32)ccc1C
% of control ([4]; at 1 µM): 100% | % of control ([4]; at 10 µM): 74%

Cc1cc(F)c(C(=O)Nc2cccc(-c3nncn3C(C)C)n2)cc1-n1cnc(C2CC2)c1
% of control [5]: 100%

Nc1cnc(N2CCc3cc(S(=O)(=O)Nc4c(F)cc(Cl)cc4F)cc(N4CCCC4=O)c32)nc1 [TP-020n]
% of control [6]: 100%

Cn1cc(-n2cnc3c(NCc4nc5cc(Cl)c(Cl)cc5[nH]4)nc(N4CCOCC4)nc32)cn1
% of inhibition [7]: -12% | % of control [8]: -0.027%

Cc1cc(CN)cc(C)c1-c1ncn(C)c1-c1cncn1C
dTM [9]: -2.3 K

Cc1cc([C@@H](C)Nc2ccccc2C(=O)O)c2nc(N3CCOCC3)cc(=O)n2c1 [AZD-6482]
% of control [10]: 63%

Cc1ccc(-c2ccc3c(ccc4sc5c(c43)NC[C@@H](C)NC5=O)n2)cn1
% of inhibition [11]: 21%

CC(C)(O)[C@H](F)CN1Cc2cc(NC(=O)c3cnn4cccnc34)c(N3CCOCC3)cc2C1=O
dTM [12]: -1.2 K

CC[C@@H]1[C@H](F)C(=O)N[C@@H]1COc1nccc2cc(C(N)=O)c(OC)cc12 [ZIMLOVISERTIB]
% of inhibition ([13]; at 0.01 µM): 13.5% | % of inhibition ([13]; at 0.04 µM): 5.2% | % of inhibition ([13]; at 0.2 µM): 15.3% | % of inhibition ([13]; at 1 µM): 30.7% | % of inhibition ([13]; at 5 µM): 60.6%

CN(C)CCOc1ccc(-c2nc(-c3ccncc3)c(-c3ccc4c(c3)CC/C4=N\O)[nH]2)cc1
% of control [14]: 87% | % of control [15]: 92%
